Measurements as given in patent publication US8952024B2, “Herbicidal pyrimidone derivatives” (E I du Pont de Nemours and Company, priority 2009, dated 2015).
Where two headings read alike, the source gives them in different places.

Tests used:
Test in all cases: Test B pre-/postemergence plant response
Type in all cases: in vivo
[1] = test system: bermudagrass (Cynodon dactylon); settings: for pest or weed control at 16 g/ha: 16 g ai/ha; for pest or weed control at 31 g/ha: 31 g ai/ha; for pest or weed control at 62 g/ha: 62 g ai/ha
How it was run: (§1)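 Test compounds, formulated in a non-phytotoxic solvent mixture with surfactant, are applied to the soil surface (loam and sand blend) right after seeding, or sprayed over plants at the 1- to 4-leaf stage grown in peat moss/vermiculite medium. After 13 to 15 days under glasshouse conditions, each species is scored visually from 0 (no effect) to 100 (complete control) against controls.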

[2] = test system: blackgrass (Alopecurus myosuroides); settings: for pest or weed control at 16 g/ha: 16 g ai/ha; for pest or weed control at 16 g/ha / pest or weed control at 31 g/ha / pest or weed control at 62 g/ha: read-out: Plant response rating, Blackgrass; for pest or weed control at 31 g/ha: 31 g ai/ha; for pest or weed control at 62 g/ha: 62 g ai/ha
How it was run: as §1

[3] = test system: cocklebur (Xanthium strumarium); settings: for pest or weed control at 16 g/ha: 16 g ai/ha; for pest or weed control at 16 g/ha / pest or weed control at 31 g/ha / pest or weed control at 62 g/ha: read-out: Plant response rating, Cocklebur; for pest or weed control at 31 g/ha: 31 g ai/ha; for pest or weed control at 62 g/ha: 62 g ai/ha
How it was run: as §1

[4] = test system: downy bromegrass (Bromus tectorum); settings: for pest or weed control at 16 g/ha: 16 g ai/ha; for pest or weed control at 16 g/ha / pest or weed control at 31 g/ha / pest or weed control at 62 g/ha: read-out: Plant response rating, Bromegrass, Downy; for pest or weed control at 31 g/ha: 31 g ai/ha; for pest or weed control at 62 g/ha: 62 g ai/ha
How it was run: as §1

[5] = test system: giant foxtail (Setaria faberii); settings: for pest or weed control at 16 g/ha: 16 g ai/ha; for pest or weed control at 16 g/ha / pest or weed control at 31 g/ha / pest or weed control at 62 g/ha: read-out: Plant response rating, Foxtail, Giant; for pest or weed control at 31 g/ha: 31 g ai/ha; for pest or weed control at 62 g/ha: 62 g ai/ha
How it was run: as §1

[6] = test system: green foxtail (Setaria viridis); settings: for pest or weed control at 16 g/ha: 16 g ai/ha; for pest or weed control at 16 g/ha / pest or weed control at 31 g/ha / pest or weed control at 62 g/ha: read-out: Plant response rating, Foxtail, Green; for pest or weed control at 31 g/ha: 31 g ai/ha; for pest or weed control at 62 g/ha: 62 g ai/ha
How it was run: as §1

[7] = test system: johnsongrass (Sorghum halepense); settings: for pest or weed control at 16 g/ha: 16 g ai/ha; for pest or weed control at 16 g/ha / pest or weed control at 31 g/ha / pest or weed control at 62 g/ha: read-out: Plant response rating, Johnsongrass; for pest or weed control at 31 g/ha: 31 g ai/ha; for pest or weed control at 62 g/ha: 62 g ai/ha
How it was run: as §1

[8] = test system: kochia (Kochia scoparia); settings: Bassia scoparia; for pest or weed control at 16 g/ha: 16 g ai/ha; for pest or weed control at 16 g/ha / pest or weed control at 31 g/ha / pest or weed control at 62 g/ha: read-out: Plant response rating, Kochia; for pest or weed control at 31 g/ha: 31 g ai/ha; for pest or weed control at 62 g/ha: 62 g ai/ha
How it was run: as §1

[9] = Cynodon dactylon, pre-emergence, Preemergence, scale 0 to 100 (0 no effect, 100 complete control), read-out: Plant response rating, Bermudagrass
[10] = Preemergence, 125 g ai/ha, 0 to 100 scale
[11] = Alopecurus myosuroides, pre-emergence, 360 h, Preemergence, scale 0 to 100 (0 no effect, 100 complete control)
[12] = Xanthium strumarium, pre-emergence, Preemergence, scale 0 to 100 (0 no effect, 100 complete control)
[13] = Bromus tectorum, pre-emergence, Preemergence, scale 0 to 100 (0 no effect, 100 complete control)
[14] = Setaria faberi, pre-emergence, Preemergence, scale 0 to 100 (0 no effect, 100 complete control)
[15] = Setaria viridis, pre-emergence, Preemergence, scale 0 to 100 (0 no effect, 100 complete control)
[16] = Sorghum halepense, pre-emergence, Preemergence, scale 0 to 100 (0 no effect, 100 complete control)
[17] = pre-emergence, Preemergence, scale 0 to 100 (0 no effect, 100 complete control)

Structure (SMILES): O=C1CCCC(O)=C1C(=O)c1cnc(-c2ccccc2)n(-c2ccccc2)c1=O [Compound 2, 5-[(2-hydroxy-6-oxo-1-cyclohexen-1-yl)carbonyl]-2,3-diphenyl-4(3H)-pyrimidinone]
- pest or weed control at 16 g/ha ([1]; Cynodon dactylon, post-emergence, Postemergence, 0 to 100 scale, read-out: Plant response rating, Bermudagrass): 40%
- pest or weed control at 31 g/ha ([1]; Cynodon dactylon, post-emergence, Postemergence, scale 0 to 100 (0 no effect, 100 complete control), read-out: Plant response rating, Bermudagrass): 80%
- pest or weed control at 62 g/ha ([1]; Cynodon dactylon, post-emergence, Postemergence, scale 0 (no effect) to 100 (complete control), 13 to 15 days, read-out: Plant response rating, Bermudagrass): 85%
- pest or weed control at 125 g/ha ([1]; Cynodon dactylon, post-emergence, Postemergence, 125 g ai/ha, scale 0 to 100 (0 no effect, 100 complete control), 13 to 15 days, read-out: Plant response rating, Bermudagrass): 90%
- pest or weed control at 16 g/ha [1, 9]: 25%
- pest or weed control at 31 g/ha [1, 9]: 98%
- pest or weed control at 62 g/ha ([1]; Cynodon dactylon, pre-emergence, Preemergence, scale 0 to 100, 0 no effect, 100 complete control, read-out: Plant response rating, Bermudagrass): 100%
- Bermudagrass plant response rating [1, 10]: 100
- pest or weed control at 16 g/ha ([2]; Alopecurus myosuroides, post-emergence, 360 h, Postemergence, 0 to 100 scale): 0%
- pest or weed control at 31 g/ha ([2]; Alopecurus myosuroides, post-emergence, 360 h, Postemergence, scale 0 to 100 (0 no effect, 100 complete control)): 10%
- pest or weed control at 62 g/ha ([2]; Alopecurus myosuroides, post-emergence, 360 h, Postemergence, scale 0 (no effect) to 100 (complete control), 13 to 15 days): 30%
- pest or weed control at 125 g/ha ([2]; Alopecurus myosuroides, post-emergence, 360 h, Postemergence, 125 g ai/ha, visual rating after 13 to 15 days, scale 0 (no effect) to 100 (complete control)): 45%
- pest or weed control at 16 g/ha [2, 11]: 0%
- pest or weed control at 31 g/ha [2, 11]: 0%
- pest or weed control at 62 g/ha ([2]; Alopecurus myosuroides, pre-emergence, 360 h, Preemergence, scale 0 to 100, 0 no effect, 100 complete control): 0%
- Blackgrass plant response rating [2, 10]: 50
- Cocklebur plant response rating [3, 10]: 80
- pest or weed control at 16 g/ha ([3]; Xanthium strumarium, post-emergence, Postemergence, 0 to 100 scale): 75%
- pest or weed control at 31 g/ha ([3]; Xanthium strumarium, post-emergence, Postemergence, scale 0 to 100 (0 no effect, 100 complete control)): 80%
- pest or weed control at 62 g/ha ([3]; Xanthium strumarium, post-emergence, Postemergence, scale 0 (no effect) to 100 (complete control), 13 to 15 days): 90%
- pest or weed control at 125 g/ha ([3]; Xanthium strumarium, post-emergence, Postemergence, 125 g ai/ha, visual rating after 13 to 15 days, scale 0 (no effect) to 100 (complete control)): 95%
- pest or weed control at 16 g/ha [3, 12]: 0%
- pest or weed control at 31 g/ha [3, 12]: 0%
- pest or weed control at 62 g/ha ([3]; Xanthium strumarium, pre-emergence, Preemergence, scale 0 to 100, 0 no effect, 100 complete control): 65%
- pest or weed control at 16 g/ha ([4]; Bromus tectorum, post-emergence, Postemergence, 0 to 100 scale): 20%
- pest or weed control at 31 g/ha ([4]; Bromus tectorum, post-emergence, Postemergence, scale 0 to 100 (0 no effect, 100 complete control)): 35%
- pest or weed control at 62 g/ha ([4]; Bromus tectorum, post-emergence, Postemergence, scale 0 (no effect) to 100 (complete control), 13 to 15 days): 60%
- pest or weed control at 125 g/ha ([4]; Bromus tectorum, post-emergence, Postemergence, 125 g ai/ha, visual rating after 13 to 15 days, scale 0 (no effect) to 100 (complete control)): 80%
- pest or weed control at 16 g/ha [4, 13]: 0%
- pest or weed control at 31 g/ha [4, 13]: 0%
- pest or weed control at 62 g/ha ([4]; Bromus tectorum, pre-emergence, Preemergence, scale 0 to 100, 0 no effect, 100 complete control): 0%
- Bromegrass, Downy plant response rating [4, 10]: 5
- Foxtail, Giant plant response rating [5, 10]: 70
- pest or weed control at 16 g/ha ([5]; Setaria faberi, post-emergence, Postemergence, 0 to 100 scale): 70%
- pest or weed control at 31 g/ha ([5]; Setaria faberi, post-emergence, Postemergence, scale 0 to 100 (0 no effect, 100 complete control)): 85%
- pest or weed control at 62 g/ha ([5]; Setaria faberi, post-emergence, Postemergence, scale 0 (no effect) to 100 (complete control), 13 to 15 days): 85%
- pest or weed control at 125 g/ha ([5]; Setaria faberi, post-emergence, Postemergence, 125 g ai/ha, visual rating after 13 to 15 days, scale 0 (no effect) to 100 (complete control)): 85%
- pest or weed control at 16 g/ha [5, 14]: 0%
- pest or weed control at 31 g/ha [5, 14]: 15%
- pest or weed control at 62 g/ha ([5]; Setaria faberi, pre-emergence, Preemergence, scale 0 to 100, 0 no effect, 100 complete control): 20%
- Foxtail, Green plant response rating [6, 10]: 60
- pest or weed control at 16 g/ha ([6]; Setaria viridis, post-emergence, Postemergence, 0 to 100 scale): 50%
- pest or weed control at 31 g/ha ([6]; Setaria viridis, post-emergence, Postemergence, scale 0 to 100 (0 no effect, 100 complete control)): 75%
- pest or weed control at 62 g/ha ([6]; Setaria viridis, post-emergence, Postemergence, scale 0 (no effect) to 100 (complete control), 13 to 15 days): 90%
- pest or weed control at 125 g/ha ([6]; Setaria viridis, post-emergence, Postemergence, 125 g ai/ha, visual rating after 13 to 15 days, scale 0 (no effect) to 100 (complete control)): 100%
- pest or weed control at 16 g/ha [6, 15]: 0%
- pest or weed control at 31 g/ha [6, 15]: 0%
- pest or weed control at 62 g/ha ([6]; Setaria viridis, pre-emergence, Preemergence, scale 0 to 100, 0 no effect, 100 complete control): 5%
- Johnsongrass plant response rating [7, 10]: 80
- pest or weed control at 16 g/ha ([7]; Sorghum halepense, post-emergence, Postemergence, 0 to 100 scale): 75%
- pest or weed control at 31 g/ha ([7]; Sorghum halepense, post-emergence, Postemergence, scale 0 to 100 (0 no effect, 100 complete control)): 85%
- pest or weed control at 62 g/ha ([7]; Sorghum halepense, post-emergence, Postemergence, scale 0 (no effect) to 100 (complete control), 13 to 15 days): 90%
- pest or weed control at 125 g/ha ([7]; Sorghum halepense, post-emergence, Postemergence, 125 g ai/ha, visual rating after 13 to 15 days, scale 0 (no effect) to 100 (complete control)): 98%
- pest or weed control at 16 g/ha [7, 16]: 0%
- pest or weed control at 31 g/ha [7, 16]: 60%
- pest or weed control at 62 g/ha ([7]; Sorghum halepense, pre-emergence, Preemergence, scale 0 to 100, 0 no effect, 100 complete control): 65%
- pest or weed control at 16 g/ha ([8]; post-emergence, Postemergence, 0 to 100 scale): 55%
- pest or weed control at 31 g/ha ([8]; post-emergence, Postemergence, scale 0 to 100 (0 no effect, 100 complete control)): 60%
- pest or weed control at 62 g/ha ([8]; post-emergence, Postemergence, scale 0 (no effect) to 100 (complete control), 13 to 15 days): 75%
- pest or weed control at 125 g/ha ([8]; post-emergence, Postemergence, 125 g ai/ha, visual rating after 13 to 15 days, scale 0 (no effect) to 100 (complete control)): 80%
- pest or weed control at 16 g/ha [8, 17]: 0%
- pest or weed control at 31 g/ha [8, 17]: 100%
- pest or weed control at 62 g/ha [8, 17]: 100%
